Data taken from patent US10562890B2, “Cancer therapeutics” (UNIVERSITY OF VIRGINIA PATENT FOUNDATION, priority 2014, dated 2020).

Key:
[1] = system: BEAS-2B normal lung cells; test: MTT growth assay, BEAS-2B cells; type: cell-based; details: 10 μM, 72 hrs
Procedure: (§1) Activity of Al-10-104 was tested using several lung cancer cell lines and one immortalized, non-transformed lung cell line. […] Data for the squamous cell carcinoma of the lung cell line H520 and the immortalized normal lung epithelial cell line BEAS-2B are shown in FIG. 10.
(§2) H520 cells were cultured in RPMI 1640 medium, supplemented with fetal bovine serum (10% final concentration), Hepes (1%), and sodium priruvate (1%). The MTT assay used 4×10^5/ml cells. BEAS-2B cells were cultured in DMEM medium with fetal bovine serum (10% final concentration). The MTT assay for the BEAS-2B cell line was performed using 3.5×10^5/ml cells.
(§3) Al-4-88 had no effect on either cell line.

[2] = system: primary T-ALL patient samples; test: Apoptosis of primary T-ALL patient samples; type: cell-based, human
[3] = Sedative effects and tolerability in mice after IP administration; type: in vivo; details: intraperitoneal (IP) injection
Description: “NA” indicates not active. […] Reasoning that this effect depended on the ability of the compound to cross the blood brain barrier (BBB), compounds Al-12-126 and Al-14-91 have appended morpholine ring substituents to the 5 position of the pyridine ring to increase the polarity of the compounds and thereby limit BBB penetration.

lung cancer cell lines = test: MTT growth assay, several lung cancer cell lines; type: cell-based
Procedure: as §1

[4] = system: OVCAR8 ovarian cancer cells; test: CellTiter-Glo viability assay, OVCAR8; type: cell-based; details: Homo sapiens, OVCAR-8, OVCAR8, 72 hours
Procedure: OVCAR8 cells were grown in RPMI 1640 supplemented with 10% Fetal bovine serum and 1% antibiotics. OVCAR4 cells were grown in RPMI 1640 supplemented with 20% fetal bovine serum and 1% antibiotics. Cells growing at approximately 70% confluency were trypsinized and 2500 cells per well were re-plated in opaque bottomed 96-well plates.
24 hours after plating, chemical compounds diluted in DMSO were mixed with cell growth media and added to cells. Compounds mixed with media were made at 10× concentration. Cells treated with compounds were incubated for 72 hours in a humidified incubator at 37° C. supplemented with 5% CO2. Percentage of cells viable after 72 hours was determined by CellTitler-Glo according to the manufacturer's instructions. Data analysis was performed using GraphPad 5.0.
In the graph, the ordinate represents % inhibition and the abscissa represents the log value of the concentration of the compound.

H520 lung cancer cells = test: MTT growth assay, H520 cells; type: cell-based; details: H520, 10 μM, 72 hrs
Procedure: as §1, §2, §3

[5] = Aqueous solubility in 0.25% DMSO by NMR spectroscopy; type: physicochemical; details: aqueous, kinetic from dmso stock; 0.25% DMSO, NMR spectroscopy; read-out: aqueous solubility
Procedure: Al-10-104, Al-12-126, and Al-14-91 were all soluble at concentrations above 100 μM. […] As the Runt domain is highly conserved among all three RUNX family members, we would expect to see similar effects on binding to RUNX2 or RUNX3. Therefore, the action of the inhibitors will likely affect the activity of all three RUNX family members.

11 leukemia cell lines = test: Viability of a panel of 11 leukemia cell lines; type: cell-based; details: 48 hours of treatment
Description: Compounds Al-4-88, Al-4-57, Al-10-47, Al-10-104, and Al-14-91 were screened against a panel of 11 leukemia cell lines with varying genotypes.
The viability is represented as the percent DAPI negative cells relative to DMSO control. Each symbol/color in the graphs of FIG. 4 represent an individual cell line. The symbol represents the mean of independent replicates and the error bars represent the SEM. The table indicates the morphology, type of leukemia, and known mutations for each of the 11 cell lines.

MLL-AF4 leukemia cells = test: Cell death of MLL-AF4 leukemia cells; type: cell-based, human
[6] = system: T-ALL cell lines Jurkat, HBP-ALL, Loucy, and KOPTK1; test: Proliferation of T-ALL cell lines; type: cell-based, human
T-ALL cell lines = test: Apoptosis in T-ALL cell lines; type: cell-based, human
[7] = target: binding of CBFβ to RUNX1 in SEM cells (Homo sapiens (Human), UniProt Q13951); test: Co-immunoprecipitation of CBFβ with RUNX1 in SEM cells; type: cell-based; details: 10 μM, 6 hours
Procedure: To test whether the wild-type CBFβ Inhibitors can disrupt the binding of CBFβ to RUNX1 in cells, co-immunoprecipitation experiments were performed in the SEM cell line. Co-immunoprecipitation assays of lysates from […] SEM cells were treated with Al-4-88^1, Al-10-47, Al-10-104, Al-12-126 and Al-14-91 at 10 μM for 6 hours. RUNX1-bound CBFβ protein levels and immunoprecipitated RUNX1 are shown on the top panel of FIG. 2A. Quantification of RUNX1 bound CBFβ is shown on the bottom graph.

[8] = system: inducible Runx1 (iRx) ES cells; test: Inducible Runx1 (iRx) ES cell differentiation system, FACS; type: cell-based
Procedure: FIG. 3A is a schematic diagram representing the inducible Runx1 (iRx) ES cell differentiation system. ES cells were allowed to form embryoid bodies (EB) in IVD culture media and hemangioblast Flk1 positive cells were sorted and seeded into blast culture media. After 2 days, a second Flk1 sort was performed and Flk1 positive cells were cultured in hemogenic endothelium culture conditions. In the absence of doxycycline (−dox), Runx1 is absent and cells cannot progress from the HE1 stage of development. In the presence of doxycycline (+dox), Runx1 is expressed and differentiation progresses, resulting in the formation of CD41+ve/c-kit+ve floating progenitors.
FIG. 3C provides representative FACS histograms showing staining of the surface markers CD41 and c-kit in cells treated with the compounds and in the presence or absence of doxycycline, as indicated.
FIG. 3D provides representative FACS histograms showing staining of Annexin V and Propidium Iodide (PI) in cells treated with compounds Al-10-104 and Al-4-88 in the absence or presence of doxycycline, as indicated.

binding of CBFβ to RUNX1 in SEM cells, sequence (Q13951 whole entry): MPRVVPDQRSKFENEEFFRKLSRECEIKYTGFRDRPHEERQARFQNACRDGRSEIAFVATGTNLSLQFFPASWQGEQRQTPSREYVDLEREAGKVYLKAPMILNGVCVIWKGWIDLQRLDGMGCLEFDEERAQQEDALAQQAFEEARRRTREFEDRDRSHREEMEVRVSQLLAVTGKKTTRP

In the case of `COc1cccnc1-c1nc2cc(OC(F)(F)F)ccc2[nH]1` [Al-10-104], the “cell growth (MTT assay)” value [1] is reported as “no effect”, the apoptosis [2] is reported as “induced apoptosis” and the sedative effects [3] is reported as “significant sedative effects that were lethal at high doses”. The “growth inhibition (MTT assay)” value (lung cancer cell lines) was “growth inhibition”, the IC50 [4] was 4.84 µM and the “cell growth (MTT assay)” value (H520 lung cancer cells) was “inhibited almost as effectively as 1 μM staurosporine”. The solubility [5] was greater than 100 µM, the “percent viability (DAPI negative cells relative to DMSO)” value (11 leukemia cell lines) was “significant inhibition of the majority of the cell lines” and the cell death (MLL-AF4 leukemia cells) was “induced cell death”. The proliferation [6] was “inhibited proliferation”, the apoptosis (T-ALL cell lines) was “induced apoptosis” and the “RUNX1-bound CBFβ (co-immunoprecipitation)” value [7] was “reduction in binding”. The “percentage of cells expressing c-kit and CD41” value ([8]; 10 μM, in the presence of doxycycline) was “reduced” and the “apoptosis (Annexin V and PI staining)” value ([8]; adherent cells, absence or presence of doxycycline) was “apoptosis is not increased”.
